Laboratory results from paper PMC9791066, “Investigations into the antibacterial effects and potential mechanism of gambogic acid and neogambogic acid” (Frontiers in Microbiology, 2022).
In brackets after ≈: the same amount, converted by molar mass. Read-outs that look alike come from different tables or passages of the source.

Experiments:
[1] = tested on: Enterococcus faecalis ATCC29212; test: MIC, microtiter broth dilution; type: cell-based; details: LB broth, 18 h
Method: (§1) Antibacterial activities were performed by examining the minimal inhibitory concentrations (MICs), which was determined by a microtiter broth dilution method as previously described ([Cotsonas King and Wu, 2009]), with minor modifications. Briefly, 96-well plates (Corning) were inoculated with 100 μl of LB broth per well containing 7 × 10^5 CFU/mL bacteria, followed by adding 100 μl of LB broth containing two-fold serial dilutions of the test compounds. […] After 18 h of incubation, the MIC was determined to be the lowest concentration without visible bacterial growth. The results were the averages of at least three biological replicates.

[2] = tested on: Escherichia coli ATCC25922; test: MIC, microtiter broth dilution; type: cell-based; details: LB broth, 18 h
Method: as §1

[3] = tested on: Listeria monocytogenes ATCC19117; test: MIC, microtiter broth dilution; type: cell-based; details: LB broth, 18 h
Method: as §1

[4] = tested on: Staphylococcus aureus ATCC29213; test: MIC, microtiter broth dilution; type: cell-based; details: LB broth, 18 h
Method: as §1

[5] = tested on: MRSA; test: MIC, microtiter broth dilution; type: cell-based, Staphylococcus aureus; details: LB broth, 18 h
Method: as §1

[6] = tested on: Escherichia coli BAS 849; test: microbe, parasite or virus in culture; type: cell-based; details: LB broth, 18 h, strain with deficient outer-membrane structure
Method: as §1

[7] = tested on: Escherichia coli BL21 (DE3); test: microbe, parasite or virus in culture; type: cell-based; details: LB broth, 18 h
Method: as §1

[8] = tested on: Escherichia coli DH5α; test: microbe, parasite or virus in culture; type: cell-based; details: LB broth, 18 h
Method: as §1

[9] = Enterococcus faecalis, ATCC29212, read-out: MIC
[10] = Listeria monocytogenes, ATCC19117, read-out: MIC
[11] = Staphylococcus aureus, ATCC29213, read-out: MIC
[12] = Staphylococcus aureus, MRSA, read-out: MIC
[13] = Escherichia coli, read-out: MIC

CC1(C)S[C@@H]2[C@H](NC(=O)[C@H](N)c3ccccc3)C(=O)N2[C@H]1C(=O)O [Amp, ampicillin]
MIC [1, 9]: 0.5 µg/mL (≈ 1.43 µM)
MIC ([2]; Escherichia coli, ATCC25922, read-out: MIC): 1 µg/mL (≈ 2.86 µM)
MIC [3, 10]: 1 µg/mL (≈ 2.86 µM)
MIC [4, 11]: 1 µg/mL (≈ 2.86 µM)
MIC [5, 12]: 1 µg/mL (≈ 2.86 µM)
MIC ([6]; Escherichia coli, BAS849, read-out: MIC): 0.5 µg/mL (≈ 1.43 µM)
MIC [7, 13]: 1 µg/mL (≈ 2.86 µM)
MIC [8, 13]: 2 µg/mL (≈ 5.72 µM)

CN(C)[C@@H]1C(O)=C(C(N)=O)C(=O)[C@@]2(O)C(O)=C3C(=O)c4c(O)cccc4[C@@](C)(O)[C@H]3C[C@@H]12 [Tet, Tetracycline]
MIC [1, 9]: 8 µg/mL (≈ 18 µM)
MIC [3, 10]: 2 µg/mL (≈ 4.5 µM)
MIC [4, 11]: 0.5 µg/mL (≈ 1.13 µM)
MIC [5, 12]: 2 µg/mL (≈ 4.5 µM)

COc1cc(O)c2c(O)c3c(c4c2c1[C@]1(C4)C(C)=CCCC1(C)C)[C@H](O)[C@@]1(O)CC(=O)C(C(N)=O)=C(O)[C@@]1(O)C3=O [VirA, viridicatumtoxins A]
MIC [1]: 2 µg/mL (≈ 3.54 µM)
MIC [2]: > 64 µg/mL
MIC [3]: 2 µg/mL (≈ 3.54 µM)
MIC [4]: 1 µg/mL (≈ 1.77 µM)
MIC [5]: 1 µg/mL (≈ 1.77 µM)
MIC [6]: 8 µg/mL (≈ 14.1 µM)
MIC [7]: > 64 µg/mL
MIC [8]: > 64 µg/mL

COc1cc(O)c2c(O)c3c(c4c2c1C1(C4)C(C)=CCCC1(C)C)C1(O)OC12CC(=O)C(C(N)=O)=C(O)C2(O)C3=O (stereo not shown) [VirB, viridicatumtoxins B]
MIC [1]: 1 µg/mL (≈ 1.77 µM)
MIC [2]: > 64 µg/mL
MIC [3]: 1 µg/mL (≈ 1.77 µM)
MIC [4]: 1 µg/mL (≈ 1.77 µM)
MIC [5]: 1 µg/mL (≈ 1.77 µM)
MIC [6]: 8 µg/mL (≈ 14.2 µM)
MIC [7]: > 64 µg/mL
MIC [8]: > 64 µg/mL
